By IC50 is commonly meant the concentration needed to halve the response being measured.

What all share (assay type): cell-based, human
For one assay, the system named is eIF2α (p-Ser51). Description: AlphaScreen SureFire eIF2α(p-Ser51) assay in U2OS cells. As to conditions: U2OS cells, ER stressor alone, after 120 minutes. Here is the method:
U2OS cells were plated on 96 well plates and left to recover overnight. Cells were treated with either with 2 μg/ml tunicamycin or 100 nM thapsigargin in the presence or absence of 100 nM ISRIB or with ISRIB alone for the indicated and the level of eIF2α phosphorylation was determined using the AlphaScreen SureFire eIF2α(p-Ser51) Assay kit (Perkin Elmer) following the manufacturer's recommendations. Plates were read in an Envision Xcite Multilabel Reader using the standard Alpha Screen settings.

Another assay concerns global translation. Description: Metabolic labeling (35S-methionine incorporation) in HEK293T cells. As to conditions: 100 nM thapsigargin alone. Here is the method:
HEK293T cells were seeded on 12 well plates, allowed to recover overnight and treated for the indicated times with the indicated compounds. The cells were subsequently switched to media lacking methionine and cysteine supplemented with the indicated compounds and 50 μCi of ^35S-methionine (Perkin Elmer) for 20 min. Cells were lysed by addition of SDS-PAGE loading buffer. Lysates were sonicated and equal amounts were loaded on SDS-PAGE gels (BioRad). The gel was dried and radioactive methionine incorporation was detected by exposure to a phosphor-screen and visualized with a Typhoon 9400 Variable Mode Imager (GE Healthcare).

The test system of assay [1] is ATF4 luciferase reporter. The assay can be described thus: ATF4 luciferase reporter assay (Cell-luc) in HEK293T cells. As to conditions: ER stressor alone, 384 well format.
Assay [2] deals with ATF4 luciferase reporter. The description is as above. As to conditions: Homo sapiens, HEK-293T, ATF4 luciferase reporter, HEK293T cells; read-out: IC50 (nM) Cell-luc. The text has this: FIGS. 1A-1C. […]
To identify inhibitors of PERK signaling, we engineered a reporter that allows monitoring of PERK activation in living cells. To this end, we constructed a retroviral vector containing the open-reading frame of firefly luciferase fused to the 5′UTR of ATF4 mRNA (FIG. 1A), which contains two short open-reading frames (uORFs) that control ATF4 translation in a stress-dependent manner. After infection, we established a HEK293T cell line harboring the stably integrated reporter. […] This format was used to screen 106,281 compounds covering a wide chemical space. We identified 460 hits (0.43%) (FIG. 1C), which were further validated in an 8-point dose-response assay using the same reporter. We further triaged the compounds by discarding inhibitors that also affected the IRE1 branch of the UPR using an XBP1-luciferase splicing reporter. […] We next used an orthogonal secondary screen that employed a different reporter (bi-cistronic ATF4-dGFPIRES-mCherry) stably integrated into a different cell line (U20S cells). The read-out of this latter screen was microscopy-based, which allowed us to simultaneously assess acute toxicity by cell counting, further reducing the number of viable hits to 77. As a tertiary screen, we tested compounds for their ability to inhibit ER stress-elicited induction of endogenous ATF4 by Western blot analysis. Twenty-eight compounds passed this test and were analyzed further.
ATF4 reporters were constructed by fusing the human full-length ATF4 5′-UTR (NCBI Accession BC022088.2) in front of the firefly luciferase (FLuc) or a destabilized eGFP (dEGFP) coding sequences lacking the initiator methionine.
The ATF4-FLuc reporter was generated by cloning a PCR-product containing the ATF4 full-length 5′-UTR (from +1 position a the transcription start site down to one nucleotide after the terminator codon of the second uORF) flanked by KpnI/XhoI and BglII sites at the 5′ and 3′ ends, respectively, into the KpnI-BglII sites of pCAX-F-XBP1-Luc. The resulting construct, pCAX-ATF4-FLuc, was then digested with BamHI, blunted with T4 DNA polymerase, and then digested with XhoI. The resulting fragment was then subcloned into the retroviral expression vector pLPCX (Clontech) after digesting it with HindIII, blunting with T4 DNA polymerase and then digesting with XhoI to generate pLPCX-ATF4-FLuc (DAA-312). DAA-312 was used to produce recombinant retroviruses using standard methods and the resulting viral supernatant was used to transduce HEK293T cells, which were then subsequently selected with puromycin to generate a stable cell line employed in the primary screen.
HEK293T cells carrying the ATF4 luciferase reporter were plated on poly-lysine coated 384 well plates (Greiner) at 30,000 cells per well. […] Luminescence was measured using One Glo (Promega) as specified by the manufacturer. […] Thus, these were considered unique to the PERK branch and were cherry-picked for further analysis.
(In general: Reporter assays use an easily measured gene product as a stand-in for the process of interest.)

Some results are limits rather than exact numbers.

With `C/C=C(/C)C(=O)O[C@H]1C(C)=C2[C@H]([C@@H]1OC(=O)CCCCCCC)[C@@](C)(OC(C)=O)C[C@H](OC(=O)CCC)[C@@]1(O)[C@H]2OC(=O)[C@@]1(C)O` [Thapsigargin, thapsigargin, reference compound], in the assay with eIF2α (p-Ser51), the “increase of eIF2α phosphorylation” value was determined as 7 fold. The drop in translation in the assay on global translation was 40%. In the assay with ATF4 luciferase reporter [1], the “induction in luciferase activity” value worked out at 4.9 fold.

As for `C[S+]([O-])c1ccc(OCC(=O)N[C@H]2CC[C@H](NC(=O)COc3ccc(Cl)cc3)CC2)cc1` (stereo partly shown) [compound 757260], the IC50 in the assay on ATF4 luciferase reporter [2] was more than 10000 nM.

Take `C[C@@H]1NC(=O)N[C@@H]1CCCCCC(=O)NCCOCCOCCOCCn1cc(-c2ccc(OCC(=O)N[C@H]3CC[C@H](NC(=O)COc4ccc(Cl)cc4)CC3)cc2)nn1` [compound 916727]: the IC50 in the assay on ATF4 luciferase reporter [2] was 520 nM. Still for that read-out and setting: as for `O=C(COc1ccc(Cl)cc1)N[C@H]1CC[C@H](CNC(=O)Oc2ccc(Cl)cc2)CC1` [compound 885255], the figure is 30 nM. `O=C(COc1ccc(Cl)cc1)N[C@H]1CC[C@H](NC(=O)COc2cccc(F)c2)CC1` [compound 912562]: the IC50 in the assay with ATF4 luciferase reporter [2] was 125 nM.
